The source of these data is ChEMBL document CHEMBL1201862, “PubChem BioAssay data set” (2004).

Active and inactive are the calls of the source. Bounds are passed on as bounds.

Experiment [1] has as its target DNA dC->dU-editing enzyme APOBEC-3G (Homo sapiens, UniProt Q9HC16). As to the kind of experiment: Dose Response confirmation of small molecule APOBEC3G DNA Deaminase Inhibitors via a fluorescence-based single-stranded DNA deaminase assay. [Related pubchem assays (depositor defined):AID493012, AID493028]. It is filed as functional.
Experiment [2] deals with DNA dC->dU-editing enzyme APOBEC-3A (Homo sapiens, UniProt P31941). Briefly: APOBEC3A DNA deaminase inhibitors, dose response, biochemical (AID 504722). It is filed as functional.
Experiment [3] deals with T1, Eukaryotic translation initiation factor 2-alpha kinase 3 (Homo sapiens, UniProt Q9NZJ5).
T1 sequence (Q9NZJ5 whole entry): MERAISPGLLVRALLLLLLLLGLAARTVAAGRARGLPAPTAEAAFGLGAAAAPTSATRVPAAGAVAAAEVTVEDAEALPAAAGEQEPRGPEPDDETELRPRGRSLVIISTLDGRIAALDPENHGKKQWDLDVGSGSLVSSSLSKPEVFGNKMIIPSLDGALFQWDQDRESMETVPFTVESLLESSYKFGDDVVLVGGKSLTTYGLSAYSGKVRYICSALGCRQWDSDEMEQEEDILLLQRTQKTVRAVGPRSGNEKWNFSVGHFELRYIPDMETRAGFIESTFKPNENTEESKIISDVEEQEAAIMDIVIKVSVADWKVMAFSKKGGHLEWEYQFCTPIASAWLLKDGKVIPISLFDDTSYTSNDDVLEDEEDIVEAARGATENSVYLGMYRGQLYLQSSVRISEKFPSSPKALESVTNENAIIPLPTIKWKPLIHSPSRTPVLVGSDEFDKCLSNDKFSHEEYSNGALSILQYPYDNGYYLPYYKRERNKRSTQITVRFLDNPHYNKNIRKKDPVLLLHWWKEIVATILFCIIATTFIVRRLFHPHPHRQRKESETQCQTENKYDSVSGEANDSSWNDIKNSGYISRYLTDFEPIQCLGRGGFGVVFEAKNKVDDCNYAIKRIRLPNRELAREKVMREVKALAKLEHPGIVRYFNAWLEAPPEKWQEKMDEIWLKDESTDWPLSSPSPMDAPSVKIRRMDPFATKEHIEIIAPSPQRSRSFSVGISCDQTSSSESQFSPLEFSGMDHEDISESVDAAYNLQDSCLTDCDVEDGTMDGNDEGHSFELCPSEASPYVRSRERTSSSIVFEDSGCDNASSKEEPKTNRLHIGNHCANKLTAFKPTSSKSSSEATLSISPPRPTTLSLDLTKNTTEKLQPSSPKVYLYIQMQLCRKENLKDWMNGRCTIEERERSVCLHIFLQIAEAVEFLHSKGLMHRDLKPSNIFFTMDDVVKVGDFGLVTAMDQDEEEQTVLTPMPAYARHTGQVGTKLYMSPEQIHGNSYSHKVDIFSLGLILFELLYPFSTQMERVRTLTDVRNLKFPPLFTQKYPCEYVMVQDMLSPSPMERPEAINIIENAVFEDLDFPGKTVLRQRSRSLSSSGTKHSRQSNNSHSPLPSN
As to the kind of experiment: Dose response cell-based high-throughput screening assay to measure PERK inhibition. [Related pubchem assays: 1416 ]. Format: functional.

Experiment [4] deals with T1, Eukaryotic translation initiation factor 2-alpha kinase 3. As to the kind of experiment: Counterscreen assay for PERK inhibitors: Dose response cell-based high throughput screening assay to measure inhibition of PERK at 6 hours. [Related pubchem assays: 1522, 1416 ]. Format: functional. (Counterscreens check selectivity or assay interference.)
In experiment [5] the target is T2, Rac GTPase-activating protein 1 (Homo sapiens, UniProt Q9H0H5).
T2 sequence (Q9H0H5 whole entry): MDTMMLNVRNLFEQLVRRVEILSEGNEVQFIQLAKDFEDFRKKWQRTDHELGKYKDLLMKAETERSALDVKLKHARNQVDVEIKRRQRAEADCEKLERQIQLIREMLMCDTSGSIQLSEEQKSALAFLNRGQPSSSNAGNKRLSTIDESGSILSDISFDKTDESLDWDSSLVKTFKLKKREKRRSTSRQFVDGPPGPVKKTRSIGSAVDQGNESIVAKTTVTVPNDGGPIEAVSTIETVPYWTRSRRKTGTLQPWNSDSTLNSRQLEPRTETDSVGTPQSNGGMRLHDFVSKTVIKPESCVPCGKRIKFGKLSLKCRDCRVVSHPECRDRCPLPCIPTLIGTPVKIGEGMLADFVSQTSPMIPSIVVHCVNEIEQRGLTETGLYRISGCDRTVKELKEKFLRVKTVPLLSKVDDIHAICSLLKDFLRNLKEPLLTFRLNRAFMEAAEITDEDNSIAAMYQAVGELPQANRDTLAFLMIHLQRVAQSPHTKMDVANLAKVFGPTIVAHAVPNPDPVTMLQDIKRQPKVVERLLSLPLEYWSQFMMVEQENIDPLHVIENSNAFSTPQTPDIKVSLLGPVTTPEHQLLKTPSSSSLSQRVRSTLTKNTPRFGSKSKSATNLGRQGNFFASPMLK
Briefly: MgcRacGAP GTPase-activating activity inhibitors, confirmation, biochemical, ADP Hunter fluorescence, primary and confirmatory (AID 624330). It is filed as functional.

Experiment [6] in a line: off-target signal loss in HeLa-CEM21 co-culture – HeLa F-luc CTL cells, cherry-picked, counter-screen for HIV-1 Env fusion inhibitor project, dose response (AID 652040).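 Further: potency for signal decrease marking cytotoxic or nonspecific inhibition.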 Format: functional, cell-based.
Another experiment addresses fMet-Leu-Phe receptor (Homo sapiens, UniProt P21462). As to the kind of experiment: FPR ligands, dose response (AID 519). It is filed as functional.
Experiment [7] can be described thus: CEM21 lymphoblast cell cytotoxicity, dose response, cytotoxicity control for viral fusion inhibitor project, CellTiter-Glo luminescence, cherry-picked (AID 652042).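 Further: potency for signal decrease meaning cytotoxicity.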 It is filed as functional, cell-based. Background: ATP-based viability assays read luminescence as a measure of living cells.
Experiment [8] in a line: inhibitors of HIV Env-driven cell fusion, dose response, cherry-pick (AID 652057). It is filed as functional, cell-based.
Experiment [9] is described as follows: ZM109 Env clade C HIV-1 fusion inhibitors, dose response, HeLa effector, CEM target cells, luciferase, cherry-pick (AID 652058). Format: functional, cell-based.
Experiment [10] deals with Melanin-concentrating hormone receptor 1 (Homo sapiens, UniProt Q99705). As to the kind of experiment: Fluorescence-based counterscreen for antagonists of the G-protein coupled receptor 7 (GPR7): cell-based high throughput dose response assay to identify antagonists of the melanin-concentrating hormone receptor 1 (MCHR1). Format: functional.
The target in experiment [11] is T3, Neuropeptides B/W receptor type 1 (Homo sapiens, UniProt P48145).
T3 sequence (P48145 whole entry): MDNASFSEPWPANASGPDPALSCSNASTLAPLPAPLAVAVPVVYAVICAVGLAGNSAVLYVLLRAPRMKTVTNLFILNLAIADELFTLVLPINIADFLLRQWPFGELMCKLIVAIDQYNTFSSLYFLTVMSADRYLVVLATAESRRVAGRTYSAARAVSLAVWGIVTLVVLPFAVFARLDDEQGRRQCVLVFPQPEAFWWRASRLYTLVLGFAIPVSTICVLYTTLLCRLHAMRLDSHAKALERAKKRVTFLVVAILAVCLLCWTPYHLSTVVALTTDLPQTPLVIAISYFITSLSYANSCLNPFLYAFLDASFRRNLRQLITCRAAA
Briefly: Fluorescence-based dose response cell-based high throughput screening assay to identify antagonists of the G-protein coupled receptor 7 (GPR7). [Related pubchem assays: 1952 (Screening assay (GPR7 antagonists).), 1880 (Summary AID.)]. It is filed as functional.

The nature of experiment [12]: inhibitors of clade B AD8 Env fusion, dose response, cell-based, cherry-pick (AID 652062).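 Further: luciferase signal from cell-cell fusion driven by HIV-1 clade B AD8 Env; potency is for inhibitors of fusion seen as a drop in luminescence.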 Format: functional.
For experiment [13], the target named is T4, Dual specificity protein phosphatase 6 (Rattus norvegicus, UniProt Q64346).
T4 sequence (Q64346 whole entry): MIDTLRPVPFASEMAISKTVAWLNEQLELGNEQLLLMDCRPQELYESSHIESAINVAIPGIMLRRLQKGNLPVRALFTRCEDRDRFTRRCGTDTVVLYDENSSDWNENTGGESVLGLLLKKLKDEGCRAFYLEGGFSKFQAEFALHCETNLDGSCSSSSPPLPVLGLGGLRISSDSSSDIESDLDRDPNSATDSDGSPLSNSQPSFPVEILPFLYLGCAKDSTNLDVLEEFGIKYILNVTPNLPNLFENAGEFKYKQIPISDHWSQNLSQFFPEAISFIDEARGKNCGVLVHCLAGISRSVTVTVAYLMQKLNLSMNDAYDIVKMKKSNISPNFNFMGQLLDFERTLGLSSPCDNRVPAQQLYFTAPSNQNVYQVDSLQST

In experiment [14] the target is Glyceraldehyde-3-phosphate dehydrogenase (Homo sapiens, UniProt P04406).
Experiment [15] concerns the target T4, Dual specificity protein phosphatase 6. It is filed as functional.
Experiment [16] deals with T5, Tyrosine-protein phosphatase non-receptor type 7 (Homo sapiens, UniProt P35236).
T5 sequence (P35236 whole entry): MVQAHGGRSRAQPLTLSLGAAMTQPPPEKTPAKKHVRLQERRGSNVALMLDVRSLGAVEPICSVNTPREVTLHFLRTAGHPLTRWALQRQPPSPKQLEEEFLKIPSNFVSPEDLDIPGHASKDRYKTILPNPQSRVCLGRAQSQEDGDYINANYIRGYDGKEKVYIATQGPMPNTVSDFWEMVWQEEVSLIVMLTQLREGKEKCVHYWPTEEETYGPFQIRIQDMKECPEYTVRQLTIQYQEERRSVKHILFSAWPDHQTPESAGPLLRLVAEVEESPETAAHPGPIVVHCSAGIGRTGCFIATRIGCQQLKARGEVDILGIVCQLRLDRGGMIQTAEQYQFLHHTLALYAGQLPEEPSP
Format: functional.

Experiment [17] is described as follows: THP-1 cell cytotoxicity, dose response, cytotoxicity control for non-replicating M. tuberculosis project (AID 489025). Format: functional.
Experiment [18] is described as follows: HepG2 cell cytotoxicity, dose response, cytotoxicity control for non-replicating M. tuberculosis project (AID 489018). The note with it: Mycobacterium tuberculosis. It is filed as functional.
A short description of experiment [19]: Vero E6 cell cytotoxicity, dose response, cytotoxicity control for non-replicating M. tuberculosis project, secondary assay (AID 492998). It is filed as functional, VeroE6. The settings on record: Vero C1008.
Experiment [20] has as its target G-protein coupled receptor 35 (Homo sapiens, UniProt Q9HC97). As to the kind of experiment: GPR35 antagonists blocking zaprinast-driven arrestin recruitment, primary screen, imaging, U2OS, beta-arrestin-GFP, zaprinast agonist (AID 2058).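 Further: antagonist potency meaning inhibition of agonist-induced arrestin redistribution.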 Format: functional. A general note: Arrestin recruitment assays detect the binding of arrestin to an activated receptor.
Experiment [21] can be described thus: ADAM10 protease inhibitors, dose response, selectivity assay for ADAM17 exosite inhibitor project, biochemical, FRET peptide substrate, recombinant human ADAM10 (AID 743259).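 Further: ADAM10 enzyme cleaving a FRET peptide substrate.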
Experiment [22] addresses Disintegrin and metalloproteinase domain-containing protein 17 (Homo sapiens, UniProt P78536). As to the kind of experiment: exosite inhibitors of ADAM17, dose response, biochemical (AID 743260).
The nature of experiment [23]: cytotoxicity in HEK-293T cells, dose response, cytotoxicity control for BCR NF-kB inhibitor project, luminescence, B-cell screen hits (AID 489021).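 Further: HEK-293T cells carrying an NF-kB luciferase reporter; cells exposed to compound for about 14 hours before viability readout.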 Format: functional, cell-based.
Experiment [24] concerns the target Polyadenylate-binding protein 1 (Homo sapiens, UniProt P11940). As to the kind of experiment: PABP poly(A) RNA binding inhibitors, primary screen, biochemical, fluorescence polarization, uHTS (AID 2014).
Experiment [25] concerns the target Eukaryotic translation initiation factor 4H (Homo sapiens, UniProt Q15056). Briefly: human eIF4H binding inhibitors, primary screen, translation initiation inhibitor project, biochemical, uHTS, fluorescence polarization (AID 2012).

fMet-Leu-Phe receptor, sequence (P21462 whole entry, the tested form may be a part): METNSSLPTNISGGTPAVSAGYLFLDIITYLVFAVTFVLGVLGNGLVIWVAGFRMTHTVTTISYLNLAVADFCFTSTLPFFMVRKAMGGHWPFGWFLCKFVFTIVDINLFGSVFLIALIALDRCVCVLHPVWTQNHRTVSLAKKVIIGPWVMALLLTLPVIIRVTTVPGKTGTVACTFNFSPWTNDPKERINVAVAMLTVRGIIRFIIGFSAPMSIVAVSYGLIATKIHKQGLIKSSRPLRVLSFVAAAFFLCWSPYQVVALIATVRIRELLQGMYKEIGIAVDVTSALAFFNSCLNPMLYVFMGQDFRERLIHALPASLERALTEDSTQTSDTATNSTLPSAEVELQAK
Disintegrin and metalloproteinase domain-containing protein 17, sequence (P78536 whole entry, the tested form may be a part): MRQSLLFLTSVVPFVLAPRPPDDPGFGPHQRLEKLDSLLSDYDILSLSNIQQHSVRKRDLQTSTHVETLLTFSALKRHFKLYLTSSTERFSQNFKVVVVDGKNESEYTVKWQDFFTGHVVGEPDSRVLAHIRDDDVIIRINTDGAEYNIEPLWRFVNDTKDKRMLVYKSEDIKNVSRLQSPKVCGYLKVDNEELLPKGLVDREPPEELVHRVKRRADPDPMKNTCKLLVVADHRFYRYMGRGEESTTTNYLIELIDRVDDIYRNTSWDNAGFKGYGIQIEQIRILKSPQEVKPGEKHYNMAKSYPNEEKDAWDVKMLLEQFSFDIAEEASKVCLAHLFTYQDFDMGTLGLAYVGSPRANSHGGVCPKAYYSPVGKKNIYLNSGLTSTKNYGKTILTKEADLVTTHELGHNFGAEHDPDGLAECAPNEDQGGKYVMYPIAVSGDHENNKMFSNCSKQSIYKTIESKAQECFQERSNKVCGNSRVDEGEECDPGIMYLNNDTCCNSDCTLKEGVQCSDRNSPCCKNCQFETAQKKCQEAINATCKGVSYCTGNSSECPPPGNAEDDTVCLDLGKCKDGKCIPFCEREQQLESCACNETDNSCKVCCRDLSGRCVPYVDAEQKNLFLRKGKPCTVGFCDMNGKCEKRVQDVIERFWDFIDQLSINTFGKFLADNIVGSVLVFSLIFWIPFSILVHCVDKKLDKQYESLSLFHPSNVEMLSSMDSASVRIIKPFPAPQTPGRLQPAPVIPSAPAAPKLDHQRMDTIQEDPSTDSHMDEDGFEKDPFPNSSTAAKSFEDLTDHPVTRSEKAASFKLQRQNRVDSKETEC
Glyceraldehyde-3-phosphate dehydrogenase, sequence (P04406 whole entry): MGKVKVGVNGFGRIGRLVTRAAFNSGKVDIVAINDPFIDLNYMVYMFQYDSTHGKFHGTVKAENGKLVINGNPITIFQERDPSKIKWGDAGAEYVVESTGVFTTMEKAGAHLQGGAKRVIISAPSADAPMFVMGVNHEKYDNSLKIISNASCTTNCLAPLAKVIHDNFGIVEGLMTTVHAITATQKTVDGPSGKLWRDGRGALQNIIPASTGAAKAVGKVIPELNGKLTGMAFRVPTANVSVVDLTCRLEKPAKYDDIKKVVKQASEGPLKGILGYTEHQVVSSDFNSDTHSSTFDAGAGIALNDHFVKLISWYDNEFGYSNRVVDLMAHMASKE
Polyadenylate-binding protein 1, sequence (P11940 whole entry): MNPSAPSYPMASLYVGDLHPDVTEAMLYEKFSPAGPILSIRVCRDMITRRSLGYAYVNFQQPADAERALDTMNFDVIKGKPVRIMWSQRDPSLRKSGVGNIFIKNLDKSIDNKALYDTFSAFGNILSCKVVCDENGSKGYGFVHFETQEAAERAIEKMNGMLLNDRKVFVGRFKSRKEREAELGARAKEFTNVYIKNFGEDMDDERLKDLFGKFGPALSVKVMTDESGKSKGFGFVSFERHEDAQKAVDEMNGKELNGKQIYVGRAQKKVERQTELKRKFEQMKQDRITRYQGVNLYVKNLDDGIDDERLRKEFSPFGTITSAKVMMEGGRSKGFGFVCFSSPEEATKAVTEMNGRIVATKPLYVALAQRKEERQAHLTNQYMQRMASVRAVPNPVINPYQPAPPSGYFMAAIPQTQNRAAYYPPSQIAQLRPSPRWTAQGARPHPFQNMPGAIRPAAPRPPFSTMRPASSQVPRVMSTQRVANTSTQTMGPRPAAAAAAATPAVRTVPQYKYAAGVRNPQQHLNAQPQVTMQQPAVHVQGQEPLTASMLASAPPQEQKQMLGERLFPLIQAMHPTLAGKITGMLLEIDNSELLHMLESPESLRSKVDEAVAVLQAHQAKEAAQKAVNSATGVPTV
Melanin-concentrating hormone receptor 1, sequence (Q99705 whole entry): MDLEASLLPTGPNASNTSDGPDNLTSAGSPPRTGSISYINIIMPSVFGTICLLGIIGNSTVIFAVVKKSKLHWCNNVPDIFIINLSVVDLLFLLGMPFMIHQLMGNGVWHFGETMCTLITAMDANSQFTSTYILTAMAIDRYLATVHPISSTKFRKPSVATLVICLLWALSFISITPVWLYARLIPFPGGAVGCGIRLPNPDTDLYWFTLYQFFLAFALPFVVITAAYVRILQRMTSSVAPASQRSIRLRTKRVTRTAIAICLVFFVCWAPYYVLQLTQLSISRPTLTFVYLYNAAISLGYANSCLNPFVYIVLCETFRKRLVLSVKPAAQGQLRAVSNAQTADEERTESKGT
DNA dC->dU-editing enzyme APOBEC-3A, sequence (P31941 whole entry): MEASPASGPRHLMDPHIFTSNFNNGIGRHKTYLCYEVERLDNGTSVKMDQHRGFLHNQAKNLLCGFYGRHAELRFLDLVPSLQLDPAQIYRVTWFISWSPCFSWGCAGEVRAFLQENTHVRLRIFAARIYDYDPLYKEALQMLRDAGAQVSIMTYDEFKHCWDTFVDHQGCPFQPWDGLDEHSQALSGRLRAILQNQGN
G-protein coupled receptor 35, sequence (Q9HC97 whole entry): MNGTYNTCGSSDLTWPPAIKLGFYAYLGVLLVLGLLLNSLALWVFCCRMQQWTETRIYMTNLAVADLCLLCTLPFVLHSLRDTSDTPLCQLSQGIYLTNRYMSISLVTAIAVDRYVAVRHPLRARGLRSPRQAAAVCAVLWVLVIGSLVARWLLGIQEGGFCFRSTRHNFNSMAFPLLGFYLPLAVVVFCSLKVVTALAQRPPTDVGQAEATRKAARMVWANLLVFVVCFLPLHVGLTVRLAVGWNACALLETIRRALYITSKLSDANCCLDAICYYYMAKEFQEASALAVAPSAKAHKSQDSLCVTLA
DNA dC->dU-editing enzyme APOBEC-3G, sequence (Q9HC16 whole entry): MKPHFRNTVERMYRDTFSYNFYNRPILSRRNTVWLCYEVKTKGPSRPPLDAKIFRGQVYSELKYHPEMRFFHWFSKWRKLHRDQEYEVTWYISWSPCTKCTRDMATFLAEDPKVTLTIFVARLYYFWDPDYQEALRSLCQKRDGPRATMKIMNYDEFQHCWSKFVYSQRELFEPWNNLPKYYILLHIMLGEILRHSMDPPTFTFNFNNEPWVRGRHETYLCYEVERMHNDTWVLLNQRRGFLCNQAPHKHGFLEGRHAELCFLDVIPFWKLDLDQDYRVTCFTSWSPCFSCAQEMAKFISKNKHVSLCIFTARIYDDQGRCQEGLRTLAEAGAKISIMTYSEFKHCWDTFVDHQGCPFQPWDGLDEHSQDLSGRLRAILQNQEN

`O=C(O)c1ccc(/C=N/n2cc(-c3ccccc3)nc2S)cc1`: the results for the IC50 in experiment [1] and in experiment [2] were 3.33 µM (active) and > 100 µM (inactive), respectively.

Take `Cc1c(O)ccc2c3c(c(=O)oc12)CCCC3`: the EC50 in experiment [3] and in [4] was > 55.7 µM (not active) each time. Further, in experiment [5], the IC50 (as a rule, the concentration that gives 50% inhibition) is 22.5 µM (active).

For `Clc1ccc(C2CC(c3cccs3)n3ncnc3N2)cc1Cl` (centres undefined), the AC50 – broadly, the midpoint of the concentration-response curve, whichever way the signal moves – was 7.08 µM (active) in [6]; 56.8 µM (active) in [7]; 7.3 µM (active) in experiment [8]; 7.81 µM (active) in experiment [9]; 6.95 µM (active) in experiment [12]. Also, the Ki – broadly, a dissociation constant, usually derived from enzyme kinetics or from competition with a known ligand – on fMet-Leu-Phe receptor was > 66.7 µM (inactive). Also, the values for the 50% inhibitory concentration (IC50) in experiment [10] and in experiment [11] were 16 µM (not active) and > 4.87 µM (active), respectively.

For `CCCCCCCCCCCCCCCCCCC=CCCCCCC(=O)O`, the IC50 in experiment [13] was > 100 µM (inactive); in experiment [14] it was > 100 µM (not active); in experiment [15], > 100 µM (inactive); in [16] it was 0.801 µM (active).

Regarding `N#Cc1ccsc1NC(=O)c1ccc(Cl)c([N+](=O)[O-])c1`, the EC50 in experiment [3] and in experiment [4] was > 55.7 µM (not active) throughout. Moreover, the CC50 (as a rule, the concentration at which the toxic effect on the cells reaches its halfway point) was 20.9 µM (active) in experiment [17], > 20 µM (active) in experiment [18] and 13.9 µM (active) in [19].

On to `Cc1nc(N2CCCCC2)c2c(C)c(C(=O)Nc3ccc4c(c3)OCCO4)sc2n1`, for which the IC50 in [20] was 2.07 µM (active); in experiment [21], > 69.5 µM (inactive); in experiment [22] it was > 69.5 µM (inactive).

Take `CC1Cc2ccccc2N1S(=O)(=O)c1cnc(Cl)c(Cl)c1` (centres undefined): the IC50 in experiment [23] is > 80 µM (inactive).

As for `CCCC[N+]12C3C[C@H](C4[C@H](O)[C@]5(C[C@@H]41)c1ccccc1N(C)[C@@H]35)[C@H](CC)[C@H]2O` (some centres undefined), the IC50 was 5.27 µM (active) in experiment [24] and > 100 µM (inactive) in experiment [25].

With `CCC(CC)C(=O)Nc1ccc(Sc2ccc([N+](=O)[O-])cc2)cc1`, the IC50 in [23] is > 80 µM (inactive).
